From ChEMBL document CHEMBL4020815 (J Med Chem, 2017)
In brackets after ≈: the same amount, converted by molar mass.

Assays:
[1] = Plasma concentration in CD-1 mouse at 10 mg/kg, po after 1 hr by LC-MS/MS method; assay type: ADME, organism-based
[2] = molecular target: T1, Bifunctional purine biosynthesis protein ATIC (Homo sapiens, UniProt P31939); experiment: Inhibition of AICARFT in human NCI-H460 cells assessed as increase in ZMP levels using low folate media after 16 hrs by LC-MS method; assay type: cell-based
T1 sequence (P31939 whole entry): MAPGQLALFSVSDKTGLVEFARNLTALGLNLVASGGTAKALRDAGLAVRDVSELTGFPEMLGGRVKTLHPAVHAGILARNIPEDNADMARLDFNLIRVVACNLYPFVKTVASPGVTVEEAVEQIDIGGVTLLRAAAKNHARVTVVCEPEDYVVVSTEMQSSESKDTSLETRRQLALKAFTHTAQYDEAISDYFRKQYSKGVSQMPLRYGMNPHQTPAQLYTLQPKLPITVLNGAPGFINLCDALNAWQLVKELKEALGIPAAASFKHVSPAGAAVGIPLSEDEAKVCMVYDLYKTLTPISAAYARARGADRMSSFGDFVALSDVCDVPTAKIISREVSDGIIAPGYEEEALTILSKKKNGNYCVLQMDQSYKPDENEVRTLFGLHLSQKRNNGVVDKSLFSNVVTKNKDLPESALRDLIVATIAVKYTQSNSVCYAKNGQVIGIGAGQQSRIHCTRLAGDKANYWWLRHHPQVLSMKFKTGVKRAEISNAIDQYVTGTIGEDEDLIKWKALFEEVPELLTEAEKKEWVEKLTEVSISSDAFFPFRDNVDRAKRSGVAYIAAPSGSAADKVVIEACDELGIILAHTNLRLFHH

[3] = Fraction unbound in CD-1 mouse plasma; assay type: ADME, cell-free
[4] = Permeability across apical to basolateral side in MDCK cells at 20 uM; assay type: ADME, cell-based, Canis lupus familiaris; settings: dog
[5] = molecular target: T1, Bifunctional purine biosynthesis protein ATIC; experiment: Inhibition of human full length N-terminal His-tagged AICARFT expressed in Escherichia coli BL21 (DE3) using ZMP/10-formyltetrahydrofolate as substrate assessed as decrease in IMP levels after 1 hr by mass spectrometric method
[6] = Clearance in CD-1 mouse at 1 mg/kg, iv by LC-MS/MS method; assay type: ADME, organism-based; settings: in vivo
[7] = Dissociation constant, pKa of the compound; assay type: physicochemical
[8] = Equilibrium aqueous solubility of the compound at pH 7.5 after 20 hrs by HPLC method; assay type: physicochemical
[9] = Lipophilicity, log D of the compound at pH 7; assay type: physicochemical; settings: buffer
[10] = Equilibrium aqueous solubility of the compound at pH 6 after 20 hrs by HPLC method; assay type: physicochemical
[11] = AUC in CD-1 mouse at 10 mg/kg, po by LC-MS/MS method; assay type: ADME, organism-based; settings: in vivo
[12] = Equilibrium aqueous solubility of the compound at pH 2 after 20 hrs by HPLC method; assay type: physicochemical
[13] = Oral bioavailability in CD-1 mouse at 10 mg/kg by LC-MS/MS method; assay type: ADME, organism-based; settings: in vivo
[14] = Oral bioavailability in CD-1 mouse at 5 mg/kg by LC-MS/MS method; assay type: ADME, organism-based; settings: in vivo
Mus musculus [15] = experiment: Unbound volume of distribution at steady state in CD-1 mouse at 5 mg/kg, iv by LC-MS/MS method; assay type: ADME, organism-based; settings: in vivo
Mus musculus [16] = experiment: Unbound clearance in CD-1 mouse at 5 mg/kg, iv by LC-MS/MS method; assay type: ADME, organism-based; settings: in vivo
Mus musculus [17] = experiment: In vivo inhibition of AICARFT in tumor of low folate diet fed nude mouse xenografted with human NCI-H460 cells assessed as increase in intratumoral ZMP levels at 0.3 to 30 mg/kg after 4 hrs relative to vehicle-treated control; assay type: functional
Mus musculus [18] = experiment: Unbound Cmax in CD-1 mouse at 5 mg/kg, po by LC-MS/MS method; assay type: ADME, organism-based; settings: in vivo
Mus musculus [19] = experiment: In vivo inhibition of AICARFT in tumor of low folate diet fed nude mouse xenografted with human NCI-H460 cells assessed as increase in circulating AICAr levels at 0.3 to 30 mg/kg after 4 hrs relative to vehicle-treated control; assay type: functional
[20] = Half life in CD-1 mouse at 5 mg/kg, po by LC-MS/MS method; assay type: ADME, organism-based; settings: in vivo
Mus musculus [21] = experiment: Unbound AUC in CD-1 mouse at 5 mg/kg, po by LC-MS/MS method; assay type: ADME, organism-based; settings: in vivo
[22] = molecular target: T1, Bifunctional purine biosynthesis protein ATIC; experiment: Inhibition of human AICARFT
[23] = Antitumor activity against human MDA-MB-231met2 cells xenografted in athymic nude mouse assessed as tumor volume at 5 mg/kg, iv qd administered for 5 days measured after 9 days relative to control; assay type: functional
Mus musculus [24] = experiment: Toxicity in athymic nude mouse xenografted with human MDA-MB-231met2 cells assessed as body weight loss at 5 mg/kg, iv qd administered for 5 days; assay type: organism-based; settings: in vivo, 120 h
Mus musculus [25] = experiment: Toxicity in athymic nude mouse xenografted with human MDA-MB-231met2 cells assessed as mortality at 5 mg/kg, iv qd administered for 5 days; assay type: organism-based; settings: in vivo, 120 h

| Structure (SMILES) | concentration at 1 h [1] | EC50 [2] | fraction unbound [3] | permeability [4] | IC50 [5] | other results |
| --- | --- | --- | --- | --- | --- | --- |
| O=c1[nH]ccc2cc(F)c(NS(=O)(=O)c3ccc(N4C[C@@H](F)[C@@H](O)C4)s3)cc12 (stereo in doubt) | 12 µM | 17 nM | 0.05 | 0.17% | 20 nM |  |
| N#Cc1ccc(S(=O)(=O)Nc2ccc3nc(N)[nH]c(=O)c3c2)cc1 |  |  |  |  | 18100 nM |  |
| N#Cc1ccc(S(=O)(=O)Nc2cc3c(=O)[nH]ccc3cc2F)cc1 |  | 1810 nM |  | 0.35% | 723 nM | clearance [6]: 2.34 mL/min/kg; pKa [7]: 5.97; solubility thermodynamic at 20 h [8]: 230 µg/mL (≈ 670 µM); logD [9]: 0.6; solubility thermodynamic at 20 h [10]: 20 µg/mL (≈ 58.3 µM); AUC [11]: 55800 ng·h/mL; solubility thermodynamic at 20 h [12]: 10 µg/mL (≈ 29.1 µM); bioavailability [13]: 79% |
| O=c1ccc(-c2ccc(S(=O)(=O)Nc3cc4c(=O)[nH]ccc4cc3F)s2)c[nH]1 | 1.7 µM | 62 nM | 0.05 | 0.09% | < 5 nM |  |
| O=c1[nH]ccc2cc(F)c(NS(=O)(=O)c3ccc(N4C[C@H](O)C(F)(F)C4)s3)cc12 | 19.3 µM | 31 nM | 0.02 | 0.34% | 13 nM |  |
| N#Cc1ccc(S(=O)(=O)Nc2ccc3cc[nH]c(=O)c3c2)cc1 |  | 567 nM |  | 0.55% | 608 nM | clearance [6]: 4.47 mL/min/kg; pKa [7]: 6.93; solubility thermodynamic at 20 h [8]: 160 µg/mL (≈ 492 µM); logD [9]: 1.7; solubility thermodynamic at 20 h [10]: 40 µg/mL (≈ 123 µM); AUC [11]: 16100 ng·h/mL; solubility thermodynamic at 20 h [12]: 30 µg/mL (≈ 92.2 µM); bioavailability [13]: 43% |
| O=c1[nH]ccc2cc(F)c(NS(=O)(=O)c3ccc(N4C[C@@H](O)[C@@H](F)C4)s3)cc12 (stereo in doubt) | 9.1 µM | 7.9 nM | 0.05 | 0.18% | 7.8 nM | bioavailability [14]: 33%; Vduss (Mus musculus [15]): 9 L/kg; CL free (Mus musculus [16]): 44 mL/min/kg; fold change (FC) (Mus musculus [17]): >100; fCmax (Mus musculus [18]): 232 nM; fold change (FC) (Mus musculus [19]): 80; half-life [20]: 2.8 h; fAUC (Mus musculus [21]): 1.52 µM·h |
| CC1(C)CC(c2ccc(S(=O)(=O)Nc3cc4c(=O)[nH]ccc4cc3F)s2)=CNC1=O | 30.6 µM | 10 nM | < 0.02 | 0.09% | < 5 nM | bioavailability [14]: 23%; Vduss (Mus musculus [15]): 9 L/kg; CL free (Mus musculus [16]): 19 mL/min/kg; fCmax (Mus musculus [18]): 187 nM; half-life [20]: 5.2 h; fAUC (Mus musculus [21]): 2.159 µM·h |
| O=c1[nH]ccc2cc(F)c(NS(=O)(=O)c3ccc(N4CCC(O)CC4)s3)cc12 | 4 µM | 21 nM | 0.05 | 0.25% | 13 nM |  |
| N#Cc1ccc(S(=O)(=O)Nc2ccccc2)cc1 |  |  |  |  | > 100000 nM |  |
| Nc1nc2ccc(NS(=O)(=O)c3ccc(C(=O)N[C@@H](CCC(=O)O)C(=O)O)cc3)cc2c(=O)[nH]1 |  |  |  |  | 1000 to 5000 nM | Ki [22]: 6 nM |
| O=c1[nH]ccc2cc(F)c(NS(=O)(=O)c3ccc(N4CCC[C@@H](O)C4)s3)cc12 | 1.7 µM | 68 nM | 0.03 | 0.17% | 26 nM |  |
| O=c1[nH]ccc2cc(F)c(NS(=O)(=O)c3ccc(N4CCC[C@H](O)C4)s3)cc12 | 6.7 µM | 18 nM | 0.03 | 0.17% | 18 nM |  |
| O=c1[nH]ccc2cc(F)c(NS(=O)(=O)c3ccc(N4C[C@@H](O)C(F)(F)C4)s3)cc12 | 33 µM | 27 nM | 0.03 | 0.28% | 12 nM | bioavailability [14]: 55%; Vduss (Mus musculus [15]): 15 L/kg; CL free (Mus musculus [16]): 50 mL/min/kg; fold change (FC) (Mus musculus [17]): >100; fCmax (Mus musculus [18]): 293 nM; fold change (FC) (Mus musculus [19]): 80; half-life [20]: 3.2 h; fAUC (Mus musculus [21]): 2.11 µM·h |
| O=c1[nH]ccc2cc(F)c(NS(=O)(=O)c3ccc(N4CC[C@H](O)C4)s3)cc12 | 4.7 µM |  | 0.05 | 0.29% |  |  |
| CCC1(C)CC(c2ccc(S(=O)(=O)Nc3cc4c(=O)[nH]ccc4cc3F)s2)=CNC1=O (stereo not given) | 10.5 µM | 4 nM | < 0.03 |  | < 5 nM |  |
| CN(Cc1cnc2nc(N)nc(N)c2n1)c1ccc(C(=O)N[C@@H](CCC(=O)O)C(=O)O)cc1 [METHOTREXATE] |  |  |  |  |  | Activity [23]: 88%; Activity (Mus musculus [24]): Non-Toxic; Activity (Mus musculus [25]): Non-Toxic |
| O=C1NC(=O)c2cc(NS(=O)(=O)c3ccc(Cl)cc3)ccc21 |  |  |  |  | 34800 nM |  |
| N#Cc1ccc(S(=O)(=O)Nc2cccc(C(N)=O)c2)cc1 |  |  |  |  | 90000 nM |  |
